Tests used:
ΔF508-CFTR [1] = target: T1, ΔF508-CFTR (Homo sapiens, UniProt P13569, DEL508-508); experiment: CFTR cell surface levels using HRP-tagged ΔF508-CFTR expressing CFBE cells, in the presence of a co-corrector; format: cell-based
T1 construct: host or cells: CFBE41o-, doxycycline-inducible
Outline: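 Chemiluminescent read-out of surface HRP (15 min, dark) after PBS washes. Activity is normalized as 100×(sample−DMSO)/(3 μM co-corrector alone−DMSO).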

ΔF508-CFTR [2] = target: T1, ΔF508-CFTR; experiment: CFTR cell surface levels using HRP-tagged ΔF508-CFTR expressing CFBE cells, intrinsic corrector capacity; format: cell-based; parameters: % Activation: concentration or dose not given beside the values
Outline: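 Surface ΔF508-CFTR was measured as HRP chemiluminescence from an extracellular-loop-4 tag, expressed as percent activity between DMSO and a […] corrector control.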

[3] = HRP-tagged ΔF508-CFTR CFBE cells, in the presence of 3 μM co-corrector
[4] = HRP-tagged ΔF508-CFTR CFBE cells, in the presence of 3 μM co-corrector, read-out: EC50
[5] = HRP-tagged ΔF508-CFTR expressing CFBE41o- cells, compound alone (intrinsic corrector capacity), 20 hours at 33° C.
[6] = HRP-tagged ΔF508-CFTR expressing CFBE41o- cells, compound alone (intrinsic corrector capacity), 20 hours at 33° C., read-out: EC50

T1 sequence (P13569 with tags, fused parts or gaps DEL508-508): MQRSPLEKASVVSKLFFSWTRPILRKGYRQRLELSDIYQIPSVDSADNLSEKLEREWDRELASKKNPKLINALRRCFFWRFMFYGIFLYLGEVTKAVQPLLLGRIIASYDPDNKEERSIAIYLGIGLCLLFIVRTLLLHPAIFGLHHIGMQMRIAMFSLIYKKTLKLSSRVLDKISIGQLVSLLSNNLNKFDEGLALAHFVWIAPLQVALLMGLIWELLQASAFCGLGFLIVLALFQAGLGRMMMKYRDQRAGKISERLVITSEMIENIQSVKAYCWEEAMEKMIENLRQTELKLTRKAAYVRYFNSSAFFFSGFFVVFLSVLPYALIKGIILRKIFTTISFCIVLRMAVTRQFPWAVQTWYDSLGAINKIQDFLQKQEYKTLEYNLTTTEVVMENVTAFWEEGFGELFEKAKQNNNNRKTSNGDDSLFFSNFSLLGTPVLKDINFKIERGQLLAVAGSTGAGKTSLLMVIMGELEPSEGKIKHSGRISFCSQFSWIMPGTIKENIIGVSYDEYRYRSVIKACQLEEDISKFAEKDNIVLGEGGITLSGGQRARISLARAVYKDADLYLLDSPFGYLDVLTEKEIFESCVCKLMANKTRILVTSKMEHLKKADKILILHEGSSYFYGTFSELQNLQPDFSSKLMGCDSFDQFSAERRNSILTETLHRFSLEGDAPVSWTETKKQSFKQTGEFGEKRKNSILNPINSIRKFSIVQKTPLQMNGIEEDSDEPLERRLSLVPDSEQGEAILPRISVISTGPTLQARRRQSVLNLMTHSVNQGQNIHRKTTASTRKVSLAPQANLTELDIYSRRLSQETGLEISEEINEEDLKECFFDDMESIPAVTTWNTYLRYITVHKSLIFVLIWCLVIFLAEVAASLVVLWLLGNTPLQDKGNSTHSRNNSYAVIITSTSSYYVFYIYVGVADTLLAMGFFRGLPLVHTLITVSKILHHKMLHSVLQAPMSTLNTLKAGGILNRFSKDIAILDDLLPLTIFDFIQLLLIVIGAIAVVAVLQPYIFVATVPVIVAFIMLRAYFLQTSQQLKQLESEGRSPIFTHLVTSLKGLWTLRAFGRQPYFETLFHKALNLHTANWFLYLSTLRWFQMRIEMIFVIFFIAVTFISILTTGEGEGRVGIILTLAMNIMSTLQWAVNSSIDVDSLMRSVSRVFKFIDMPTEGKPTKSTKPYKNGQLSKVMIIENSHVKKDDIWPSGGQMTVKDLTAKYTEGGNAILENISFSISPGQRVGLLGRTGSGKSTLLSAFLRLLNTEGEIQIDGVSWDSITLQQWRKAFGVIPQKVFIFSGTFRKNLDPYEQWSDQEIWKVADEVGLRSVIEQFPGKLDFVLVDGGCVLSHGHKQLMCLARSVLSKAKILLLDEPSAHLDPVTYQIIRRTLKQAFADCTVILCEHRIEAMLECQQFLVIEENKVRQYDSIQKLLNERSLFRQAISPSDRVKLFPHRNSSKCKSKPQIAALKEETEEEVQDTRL

SMILES | % Activation (ΔF508-CFTR [1]; [3]) | EC50 (ΔF508-CFTR [1]; [4]) | % Activation (ΔF508-CFTR [2]; [5]) | EC50 (ΔF508-CFTR [2]; [6]) | EC50 (ΔF508-CFTR [1]) | EC50 (ΔF508-CFTR [2])
CN(C)S(=O)(=O)NC(=O)c1cc(OCC2CCN(C3CC3)CC2)c2c(C3CCC3)nn(-c3ccc(F)cc3)c2n1 [Compound 616, 3-cyclobutyl-4-[(1-cyclopropylpiperidin-4-yl)methoxy]-N-(dimethylsulfamoyl)-1-(4-fluorophenyl)-1H-pyrazolo[3,4-b]pyridine-6-carboxamide] | 341.15% | 294 nM | 144.05% | 348 nM |  | 
CN(C)S(=O)(=O)NC(=O)c1cc(OCC2CCN(C3CCC3)CC2)c2c(C3CCC3)nn(-c3ccc(F)cc3)c2n1 [Compound 617, 3-cyclobutyl-4-[(1-cyclobutylpiperidin-4-yl)methoxy]-N-(dimethylsulfamoyl)-1-(4-fluorophenyl)-1H-pyrazolo[3,4-b]pyridine-6-carboxamide] | 324.25% | 978 nM | 137.1% | 871 nM |  | 
CN(C)S(=O)(=O)NC(=O)c1cc(OCC2CCN(C3CCCCC3)CC2)c2c(C3CCC3)nn(-c3ccc(F)cc3)c2n1 [Compound 618, 3-cyclobutyl-4-[(1-cyclohexylpiperidin-4-yl)methoxy]-N-(dimethylsulfamoyl)-1-(4-fluorophenyl)-1H-pyrazolo[3,4-b]pyridine-6-carboxamide] | 295.9% | 702 nM | 112.8% | 421 nM |  | 
CN(C)S(=O)(=O)NC(=O)c1cc(OCC2CCN(C3CCOCC3)CC2)c2c(C3CCC3)nn(-c3ccc(F)cc3)c2n1 [Compound 619, 3-cyclobutyl-N-(dimethylsulfamoyl)-1-(4-fluorophenyl)-4-{[1-(oxan-4-yl)piperidin-4-yl]methoxy}-1H-pyrazolo[3,4-b]pyridine-6-carboxamide] | 277.25% | 375 nM | 102.8% | 680 nM |  | 
CCOc1nccc(-n2nc(C3CCC3)c3c(N4CCC(N5CCOCC5)CC4)cc(C(=O)NS(=O)(=O)N(C)C)nc32)n1 [Compound 622, 3-cyclobutyl-N-(dimethylsulfamoyl)-1-(2-ethoxypyrimidin-4-yl)-4-[4-(morpholin-4-yl)piperidin-1-yl]-1H-pyrazolo[3,4-b]pyridine-6-carboxamide] | 251.25% | 309 nM | 89.445% | 568 nM |  | 
CC(C)Oc1nn(C2CCCCC2)c2nc(C(=O)NS(C)(=O)=O)cc(-c3ccc(C(=O)N4CC5CNCC5C4)cc3)c12 (stereo not shown) [Compound 631, 1-cyclohexyl-4-[4-(hexahydropyrrolo[3,4-c]pyrrole-2(1H)-carbonyl)phenyl]-N-(methanesulfonyl)-3-[(propan-2-yl)oxy]-1H-pyrazolo[3,4-b]pyridine-6-carboxamide] | 352.63% | 2990 nM | 122.53% | 3340 nM |  | 
COC1CCN(Cc2ccc(-c3cc(C(=O)NS(C)(=O)=O)nc4c3c(OC(C)C)nn4C3CCCCC3)cc2)CC1 [Compound 635, 1-cyclohexyl-N-(methanesulfonyl)-4-{4-[(4-methoxypiperidin-1-yl)methyl]phenyl}-3-[(propan-2-yl)oxy]-1H-pyrazolo[3,4-b]pyridine-6-carboxamide] | 449.25% | 73.9 nM | 216.38% | 155 nM |  | 
CC(C)Oc1nn(C2CCCCC2)c2nc(C(=O)NS(C)(=O)=O)cc(-c3ccc(CN4CC5CN(C)CC5C4)cc3)c12 (stereo not shown) [Compound 636, 1-cyclohexyl-N-(methanesulfonyl)-4-{4-[(5-methylhexahydropyrrolo[3,4-c]pyrrol-2(1H)-yl)methyl]phenyl}-3-[(propan-2-yl)oxy]-1H-pyrazolo[3,4-b]pyridine-6-carboxamide] | 388.85% | 434 nM | 182.7% | 573 nM |  | 
CC(C)Oc1nn(C2CCCCC2)c2nc(C(=O)NS(C)(=O)=O)cc(-c3ccc(C(=O)N4CC5CN(C)CC5C4)cc3)c12 (stereo not shown) [Compound 637, 1-cyclohexyl-N-(methanesulfonyl)-4-[4-(5-methylhexahydropyrrolo[3,4-c]pyrrole-2(1H)-carbonyl)phenyl]-3-[(propan-2-yl)oxy]-1H-pyrazolo[3,4-b]pyridine-6-carboxamide] | 413.4% | 971 nM | 191.88% | 2500 nM |  | 
CC(C)Oc1nn(C2CCCCC2)c2nc(C(=O)NS(C)(=O)=O)cc(-c3ccc(C4(C#N)CCN(C)CC4)cc3)c12 [Compound 639, 4-[4-(4-cyano-1-methylpiperidin-4-yl)phenyl]-1-cyclohexyl-N-(methanesulfonyl)-3-[(propan-2-yl)oxy]-1H-pyrazolo[3,4-b]pyridine-6-carboxamide] |  |  |  |  | 74.5 nM | 132 nM
CC(C)Oc1nn(C2CCCCC2)c2nc(C(=O)NS(C)(=O)=O)cc(-c3ccc(C(=O)N4CC(N(C)C)C4)cc3)c12 [Compound 640, 1-cyclohexyl-4-{4-[3-(dimethylamino)azetidine-1-carbonyl]phenyl}-N-(methanesulfonyl)-3-[(propan-2-yl)oxy]-1H-pyrazolo[3,4-b]pyridine-6-carboxamide] | 416.48% | 107 nM | 203.62% | 175 nM |  | 
CC(C)Oc1nn(C2CCCCC2)c2nc(C(=O)NS(C)(=O)=O)cc(-c3ccc(CN4CCN(C)CC45COC5)cc3)c12 [Compound 641, 1-cyclohexyl-N-(methanesulfonyl)-4-{4-[(8-methyl-2-oxa-5,8-diazaspiro[3.5]nonan-5-yl)methyl]phenyl}-3-[(propan-2-yl)oxy]-1H-pyrazolo[3,4-b]pyridine-6-carboxamide] | 443.12% | 46.3 nM | 205.35% | 74.9 nM |  | 
CCN1CCN(Cc2ccc(-c3cc(C(=O)NS(C)(=O)=O)nc4c3c(OC(C)C)nn4C3CCCCC3)cc2)CC1 [Compound 642, 1-cyclohexyl-4-{4-[(4-ethylpiperazin-1-yl)methyl]phenyl}-N-(methanesulfonyl)-3-[(propan-2-yl)oxy]-1H-pyrazolo[3,4-b]pyridine-6-carboxamide] | 430.9% | 97.3 nM | 222% | 235 nM |  | 
CC(C)Oc1nn(C2CCCCC2)c2nc(C(=O)NS(C)(=O)=O)cc(-c3ccc(CN4CCC(N(C)C)CC4)cc3)c12 [Compound 643, 1-cyclohexyl-4-(4-{[4-(dimethylamino)piperidin-1-yl]methyl}phenyl)-N-(methanesulfonyl)-3-[(propan-2-yl)oxy]-1H-pyrazolo[3,4-b]pyridine-6-carboxamide] | 445.25% | 497 nM | 181.65% | 506 nM |  | 
COC1CCN(C2CCN(c3cc(C(=O)NS(C)(=O)=O)nc4c3c(OC(C)C)nn4-c3ccc(F)cc3)CC2)CC1 [Compound 644, 1-(4-fluorophenyl)-N-(methanesulfonyl)-4-(4-methoxy[1,4'-bipiperidin]-1'-yl)-3-[(propan-2-yl)oxy]-1H-pyrazolo[3,4-b]pyridine-6-carboxamide] | 529.95% | 160 nM | 266.9% | 253 nM |  | 
CNS(=O)(=O)NC(=O)c1cc(N2CCC(N3CCC(F)CC3)CC2)c2c(C3CCC3)nn(-c3ccc(F)cc3)c2n1 [Compound 650, 3-cyclobutyl-4-(4-fluoro[1,4'-bipiperidin]-1'-yl)-1-(4-fluorophenyl)-N-(methylsulfamoyl)-1H-pyrazolo[3,4-b]pyridine-6-carboxamide] | 592.45% | 96.4 nM | 385.4% | 115 nM |  | 
CC(C)N1CCN(C2CCN(c3cc(C(=O)NS(=O)(=O)N4CCC4)nc4c3c(C3CCC3)nn4-c3ccc(F)cc3)CC2)CC1 [Compound 651, N-(azetidine-1-sulfonyl)-3-cyclobutyl-1-(4-fluorophenyl)-4-{4-[4-(propan-2-yl)piperazin-1-yl]piperidin-1-yl}-1H-pyrazolo[3,4-b]pyridine-6-carboxamide] | 532.4% | 128 nM | 317.85% | 206 nM |  | 
CN(C)S(=O)(=O)NC(=O)c1cc(N2CCC(N3CCOCC3)CC2)c2c(C3CCC3)nn(-c3cccc(OC(F)F)c3)c2n1 [Compound 652, 3-cyclobutyl-1-[3-(difluoromethoxy)phenyl]-N-(dimethylsulfamoyl)-4-[4-(morpholin-4-yl)piperidin-1-yl]-1H-pyrazolo[3,4-b]pyridine-6-carboxamide] | 499.65% | 24.9 nM | 289.03% | 84.1 nM |  | 
CN(C(=O)c1cc(N2CCC(N3CCOCC3)CC2)c2c(C3CCC3)nn(-c3ccccc3)c2n1)S(C)(=O)=O [Compound 656, 3-cyclobutyl-N-(methanesulfonyl)-N-methyl-4-[4-(morpholin-4-yl)piperidin-1-yl]-1-phenyl-1H-pyrazolo[3,4-b]pyridine-6-carboxamide] | 289.68% |  | 102.63% |  |  | 
COCC1CCN(c2cc(C(=O)N(C)S(C)(=O)=O)nc3c2c(C2CCC2)nn3-c2ccccc2)CC1 [Compound 657, 3-cyclobutyl-N-(methanesulfonyl)-4-[4-(methoxymethyl)piperidin-1-yl]-N-methyl-1-phenyl-1H-pyrazolo[3,4-b]pyridine-6-carboxamide] | 270.75% | 197 nM | 98% | 281 nM |  | 
